Results: patent publication US5686486A, “4-hydroxy-benzopyran-2-ones and 4-hydroxy-cycloalkyl[b]pyran-2-ones useful to treat retroviral infections” (priority 1995, dated 1997)
Where “and” joins values, the source holds several entries; their conditions need not be identical. Equal entries are not always repeated. Structures can show the parent of a compound that is named as a salt. Where two headings read alike, the source gives them in different places.

Molecular target: HIV-1 protease (Human immunodeficiency virus type 1 group M subtype B, UniProt P04585)
Assay: biochemical
Settings: for inhibition at 1 µM: read-out: HIV-1 Protease % Inhib, dose 1.000 uM; for inhibition at 10 µM: read-out: HIV-1 Protease % Inhib, dose 10.000 uM; for inhibition at 100 µM: read-out: HIV-1 Protease % Inhib, dose 100.000 uM
Description: The HIV protease screening assay is based on fluorescently labeled substrate which can be resolved from nonlabeled cleavage product using special beads coated with streptavidin. The substrate is biotinylated at the amino terminal arginine and fluorescently labeled with fluorescein isothiocynate (FITC) at the carboxyl terminal lysine. This assay has been employed to detect novel, nonpeptidic inhibitors of HIV-1 protease. Substrate (20 μl of 0.2 μM), sample (10 μl of desired concentration), and enzyme (10 μl of 0.1 μM) are added to a 96 well pandex plate. The assay is run in 0.1M sodium acetate buffer at pH 5.5 in the presence of 1.0M sodium chloride and 0.05% NP-40 with incubated in the dark for one hour at room temperature. Strepavidin coated polystyrene beads {40 μl of 0.1% (w/v)} are added and the plate is incubated in the dark for an additional half hour. The labeled cleavage product is separated from the unreacted substrate via filtration and is read on the Idexx screen machine. The data are analyzed by appropriate computer algorithms to ascertain percent inhibition values.

SMILES	IC50 (HIV-1 Protease IC50)	inhibition at 1 µM [%]	inhibition at 10 µM [%]	inhibition at 100 µM [%]	also measured
CCC(c1cccc(NC(=O)C(C)N)c1)c1c(O)c2ccccc2oc1=O (stereo not drawn) [Example 61, Propanamide, 2-amino-N-[3-[1-(4-hydroxy-2-oxo-2H-1-benzopyran-3-yl)propyl]phenyl]-, mono(trifluoroacetate) (salt)]	1 µM	77.8	115	119	
CCC(c1cccc(NC(=O)CCc2ccc(O)cc2)c1)c1c(O)c2ccccc2oc1=O (stereo not drawn) [Example 62, Coumarin, 4-hydroxy-3-[1-[3-[[3-(4-hydroxyphenyl)-1-oxopropyl]amino]phenyl]propyl]-]		< 10	10.6	78.3	
CCC(c1cccc(NC(=O)CCn2ccc3ccccc32)c1)c1c(O)c2ccccc2oc1=O (stereo not drawn) [Example 63, Coumarin, 4-hydroxy-3-[1-[3-[[3-(^1 H-indol-1-yl)-1-oxopropyl]amino]phenyl]propyl]-]	2 µM	77.6	90.3	111	
CCC(c1cccc(NC(=O)CCc2cccc3ccccc23)c1)c1c(O)c2ccccc2oc1=O (stereo not drawn) [Example 64, Coumarin, 4-hydroxy-3-[1-[3-[[3-(1-naphthyl)-1-oxopropyl]amino]phenyl]propyl]-]	5.8 µM	29.1	78.1	104	
CCC(c1cccc(NC(=O)CCSc2nc3ccccc3s2)c1)c1c(O)c2ccccc2oc1=O (stereo not drawn) [Example 65, Coumarin, 3-[1-[3-[[3-[(2-benzothiazolyl)thio]-1-oxopropyl]amino]phenyl]propyl]4-hydroxy-]		< 10	48.4	86.1	
CC(C)(C)OC(=O)CC(c1ccccc1)c1c(O)c2ccccc2oc1=O (stereo not drawn) [Example 66, 4-hydroxy-3-[α-tert-butyloxycarbonylmethyl]benzylcoumarin]		< 10	< 10	52.6	
C=CCOc1cccc(C(CC)c2c(O)c3ccccc3oc2=O)c1 (stereo not drawn) [Example 67, 3-(1'-(3-Allyloxyphenyl)propyl)-4-hydroxycoumarin]		< 10	11.7	60.9	
CCC(c1cccc(OCC(O)CO)c1)c1c(O)c2ccccc2oc1=O (stereo not drawn) [Example 68, 3-(1'-(3-((2,3-Dihydroxy)propyloxy)phenyl)propyl)-4-hydroxycoumarin]		< 10	< 10	56	
C=CCOc1ccccc1C(CC)c1c(O)c2ccccc2oc1=O (stereo not drawn) [Example 69, 3-(1'-(2-Allyloxyphenyl)propyl)-4-hydroxycoumarin]		< 10	20.6	92.2	
CCC(c1ccccc1OC)c1c(O)c2ccccc2oc1=O (stereo not drawn) [Example 70, 3-(1'-(2-Methoxyphenyl)propyl)-4-hydroxycoumarin]		< 10	10.2	72.2	
CCC(c1cccc(Br)c1)c1c(O)c2ccccc2oc1=O (stereo not drawn) [Example 71, 3-(1'-(3-Bromophenyl)propyl)-4-hydroxycoumarin]		< 10	15	80	
CCC(c1ccc(OC(C)=O)cc1)c1c(O)c2ccccc2oc1=O (stereo not drawn) [Example 72, 3-(1'-(4-Acetoxyphenyl)propyl)4-hydroxycoumarin]		< 10	18.9	92.3	
CCC(c1ccccc1OC(C)=O)c1c(O)c2ccccc2oc1=O (stereo not drawn) [Example 73, 3-(1'-(2-Acetoxyphenyl)propyl)-4-hydroxycoumarin]		< 10	29.9	96.7	
C=CC(c1ccccc1)c1c(O)c2ccccc2oc1=O (stereo not drawn) [Example 74, 4-Hydroxy-3-(1-phenyl-2-propenyl)-coumarin]		< 10	< 10	82.3	
O=c1oc2ccccc2c(O)c1C1CCCCc2ccccc21 (stereo not drawn) [Example 75, 4-Hydroxy-3-(5,6,7,8,9-tetrahydro-5H-benzocycloheptenyl)-coumarin]	2.4 µM	14.5	72.7	96.6	
COc1ccc2c(c1)CCCC2c1c(O)c2ccccc2oc1=O (stereo not drawn) [Example 76, 4-Hydroxy-3-(1-(6-methoxy)-1,2,3,4-tetrahydronaphthyl)-coumarin]		< 10	47.8	96.5	
COc1ccc2c(c1)C(c1c(O)c3ccccc3oc1=O)CCC2 (stereo not drawn) [Example 77, 4-Hydroxy-3-(1-(7-methoxy)-1,2,3,4-tetrahydronaphthyl)-coumarin]		< 10	57.8	92.5	

SMILES	IC50 (HIV-1 Protease IC50)	inhibition at 1 µM [%]	inhibition at 10 µM [%]	inhibition at 100 µM [%]	also measured
C=CCOc1ccc2c(O)c(C(CC)c3ccccc3)c(=O)oc2c1 (stereo not drawn) [Example 78, Coumarin, 7-(allyloxy)-3-(α-ethylbenzyl)-4-hydroxy-]	8.4 µM	< 10	65.7	83.5	
CCC(c1cccc(NC(=O)CCc2c[nH]c3ccccc23)c1)c1c(O)c2ccccc2oc1=O (stereo not drawn) [Example 79, Coumarin, 3-[α-ethyl-[[[2-(indol-3-yl)ethyl]carbonyl]amino]benzyl]-4-hydroxy-]		< 10	61	80.9	IC50 (read-out: HIV-1 Protease IC50): 13.1 µM
COc1ccc2c(O)c(C(C3CC3)C3CC3)c(=O)oc2c1 [Example 80, Coumarin, 3-[bis(cyclopropyl)methyl]-4-hydroxy-7-methoxy-]	8.5 µM	< 10	62.6	102	
CCC(c1ccccc1)c1c(O)c2ccc(OC(C)C)cc2oc1=O (stereo not drawn) [Example 81, Coumarin, 3-(α-ethylbenzyl)-4-hydroxy-7-(1-methylethoxy)-]	3.7 µM	62	75.6	85.3	
CCOc1ccc2c(O)c(C(CC)c3ccccc3)c(=O)oc2c1 (stereo not drawn) [Example 82, Coumarin, 7-ethoxy-3-(α-ethylbenzyl)-4-hydroxy-]	0.9 µM	30.9	69.7	89	
CCOC(=O)C(CC)c1c(O)c2ccccc2oc1=O (stereo not drawn) [Example 83, Butanoic acid, 2-(4-hydroxy-2-oxo-2H-1-benzopyran-3-yl)-, ethyl ester]		< 10	< 10	50.1	
CCC(Cc1c(O)c2ccccc2oc1=O)c1ccccc1 (stereo not drawn) [Example 84, Coumarin, 4-hydroxy-3-(2-phenylbutyl)-]		< 10	30.2		
CCC(c1ccc(O)cc1)c1c(O)c2ccccc2oc1=O (stereo not drawn) [Example 85, Coumarin, 4-hydroxy-3-[1-(4-hydroxyphenyl)propyl]-]		< 10	31.6	100	
CCC(c1ccccc1)c1c(O)c2ccc(C(F)(F)F)cc2oc1=O (stereo not drawn) [Example 86, Coumarin, 7-trifluoromethyl-4-hydroxy-3-(1-phenylpropyl)-]		10.5	56.9	95.8	
CCC(c1ccccc1)c1c(O)c2cc(F)ccc2oc1=O (stereo not drawn) [Example 87, Coumarin, 6-fluoro-4-hydroxy-3-(1-phenylpropyl)-]		< 10	20.6	79	
CCC(c1ccccc1)c1c(O)c2ccc(OC)cc2oc1=O (stereo not drawn) [Example 88, Coumarin, 4-hydroxy-7-methoxy-3-(. 1-phenylpropyl)-]	1.52 µM and 1.6 µM and 2 µM	80	108		HIV-1 Protease % Inhib (dose 12.500 uM): 80.8%; HIV-1 Protease % Inhib (dose 100.000 uM): 117.82% and 92% and 93.5%; inhibition at 1.56 µM (read-out: HIV-1 Protease % Inhib, dose 1.560 uM): 49.9%; inhibition at 1.57 µM (read-out: HIV-1 Protease % Inhib, dose 1.570 uM): 41.7%; inhibition at 12.5 µM (read-out: HIV-1 Protease % Inhib, dose 12.500 uM): 89.2%
CCC(c1ccccc1)c1c(O)c2cc(OC)ccc2oc1=O (stereo not drawn) [Example 89, Coumarin, 4-hydroxy-6-methoxy-3-(1-phenylpropyl)-]		< 10	10.3	52	
CCC(c1ccccc1)c1c(O)c2ccc(C)cc2oc1=O (stereo not drawn) [Example 90, Coumarin, 4-hydroxy-7-methyl-3-(1-phenylpropyl)-]		< 10	29.7	89.2	
CCC(c1ccc(Br)cc1)c1c(O)c2ccccc2oc1=O (stereo not drawn) [Example 91, Coumarin, 3-[1-(4-bromophenyl)propyl]-4-hydroxy-]		< 10	38.4		HIV-1 Protease % Inhib (dose 100.000 uM): 94.41% and 71.61%
CCC(c1ccccc1)c1c(O)c2ccc(Cl)cc2oc1=O (stereo not drawn) [Example 92, Coumarin, 7-chloro-4-hydroxy-3-(1-phenylpropyl)-]		< 10	67.8	113	
CCC(c1ccccc1)c1c(O)c2ccc(O)cc2oc1=O (stereo not drawn) [Example 93, Coumarin, 4,7-dihydroxy-3-(1-phenylpropyl)-]	20.6 µM	23.2	79.4	109	HIV-1 Protease % Inhib (dose 100.000 uM): 91.7%
